Assay results: PubChem BioAssay AID2060609 (Molecular Pharmacology Branch, DTP, NCI, 2025)

System: 855422-203-R-J1-PDC complex spheroids, viability
Assay: Anticancer human tumor 855422-203-R-J1-PDC patient-derived bladder carcinoma cell line growth inhibition [CLK]
Settings: for IC50: curve of first compound; for viability, T/C: stronger effect = lower value
How it was run: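 Multi-cell-type spheroids combined patient-derived tumor cells with HUVEC endothelial cells and human mesenchymal stem cells. Paired agents were dosed in half-log steps down from about clinical Cmax, or from 10 microM where Cmax was unknown.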
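Note: spheroids exposed to drugs for seven days before readout.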
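Throughout, for viability, T/C: 100% = DMSO vehicle control wells.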

Question: What does the source list for `COc1ccc([C@@H](O)c2cc(-c3ncnc4cc(N5CCOCC5)ccc34)c(F)cc2Cl)nn1` + CNC(=O)c1ccc(Nc2nc(OC3CCCC3)c3c(-c4ccc5nc(C)oc5c4)c[nH]c3n2)c(OC)c1?
Answer: IC50 (second compound 0.0316 µM): 5.74 µM; IC50 (second compound 0.1 µM): 1.46 µM; IC50 (second compound 0.316 µM): < 0.0316 µM; IC50 (second compound 1 µM): < 0.0316 µM; IC50 (second compound 3.16 µM): < 0.0316 µM; IC50 (second compound 10 µM): < 0.0316 µM; viability, T/C (second compound 0.0316 µM, first compound 0.0316 µM): 78.5%; viability, T/C (second compound 0.0316 µM, first compound 0.1 µM): 118%; viability, T/C (second compound 0.0316 µM, first compound 0.316 µM): 95.2%; viability, T/C (second compound 0.0316 µM, first compound 1 µM): 82.7%; viability, T/C (second compound 0.0316 µM, first compound 3.16 µM): 71.8%; viability, T/C (second compound 0.0316 µM, first compound 10 µM): 31.1%; viability, T/C (second compound 0.1 µM, first compound 0.0316 µM): 55.8%; viability, T/C (second compound 0.1 µM, first compound 0.1 µM): 55.2%; viability, T/C (second compound 0.1 µM, first compound 0.316 µM): 44.4%; viability, T/C (second compound 0.1 µM, first compound 1 µM): 47.9%; viability, T/C (second compound 0.1 µM, first compound 3.16 µM): 48.9%; viability, T/C (second compound 0.1 µM, first compound 10 µM): 22.9%; viability, T/C (second compound 0.316 µM, first compound 0.0316 µM): 24%; viability, T/C (second compound 0.316 µM, first compound 0.1 µM): 23.9%; viability, T/C (second compound 0.316 µM, first compound 0.316 µM): 16.8%; viability, T/C (second compound 0.316 µM, first compound 1 µM): 19.2%; viability, T/C (second compound 0.316 µM, first compound 3.16 µM): 16.3%; viability, T/C (second compound 0.316 µM, first compound 10 µM): 12.3%; viability, T/C (second compound 1 µM, first compound 0.0316 µM): 23.3%; viability, T/C (second compound 1 µM, first compound 0.1 µM): 24.6%; viability, T/C (second compound 1 µM, first compound 0.316 µM): 18.3%; viability, T/C (second compound 1 µM, first compound 1 µM): 17.4%; viability, T/C (second compound 1 µM, first compound 3.16 µM): 19.5%; viability, T/C (second compound 1 µM, first compound 10 µM): 12.1%; viability, T/C (second compound 3.16 µM, first compound 0.0316 µM): 17.7%; viability, T/C (second compound 3.16 µM, first compound 0.1 µM): 17.7%; viability, T/C (second compound 3.16 µM, first compound 0.316 µM): 16.3%; viability, T/C (second compound 3.16 µM, first compound 1 µM): 22.1%; viability, T/C (second compound 3.16 µM, first compound 3.16 µM): 16.6%; viability, T/C (second compound 3.16 µM, first compound 10 µM): 12.4%; viability, T/C (second compound 10 µM, first compound 0.0316 µM): 22.1%; viability, T/C (second compound 10 µM, first compound 0.1 µM): 20.9%; viability, T/C (second compound 10 µM, first compound 0.316 µM): 25.1%; viability, T/C (second compound 10 µM, first compound 1 µM): 18.4%; viability, T/C (second compound 10 µM, first compound 3.16 µM): 14.4%; viability, T/C (second compound 10 µM, first compound 10 µM): 8.91%
